Laboratory results from ChEMBL document CHEMBL1201862, “PubChem BioAssay data set” (2004).
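Results reflect a 48-hour exposure of cells in 96-well plates to compound at five concentrations. The concentration for 50% growth inhibition is given as GI50.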 Active and inactive are the calls of the source. Rule as the data show it: active = GI50 up to about 1.1 µM and inactive = higher.

Experiments:
Experiment in all cases: NCI anticancer screen, dose series, 48 h
[1] = tested on: 786-0
[2] = tested on: HCT-15
[3] = tested on: HOP-92
[4] = tested on: Hs-578T
[5] = tested on: KM12
[6] = tested on: M14
[7] = tested on: NCI-H23
[8] = tested on: NCI-H460
[9] = tested on: NCI-H522
[10] = tested on: OVCAR-4
[11] = tested on: RXF 393
[12] = tested on: SF-295
[13] = tested on: SK-MEL-5
[14] = tested on: SNB-75
[15] = tested on: T47D
[16] = tested on: TK-10
[17] = tested on: U-251
[18] = tested on: UACC-257
[19] = tested on: UO-31

SMILES | GI50 [1] | GI50 [2] [µM] | GI50 [3] | GI50 [4] | GI50 [5] | GI50 [6] | GI50 [7] | GI50 [8] | GI50 [9] | GI50 [10] | GI50 [11] | GI50 [12] | GI50 [13] | GI50 [14] | GI50 [15] | GI50 [16] | GI50 [17] | GI50 [18] | GI50 [19]
COc1cc(-c2cc(=O)c3c(OC)c(OC)c(OC)cc3o2)c(OC)c(OC)c1OC | > 75 µM (inactive) | > 75 | 14 µM (inactive) | > 75 µM (inactive) | > 75 µM (inactive) | > 75 µM (inactive) | > 75 µM (inactive) | > 75 µM (inactive) | > 75 µM (inactive) | 41.1 µM (inactive) | 52.1 µM (inactive) | > 75 µM (inactive) | 53.7 µM (inactive) | > 75 µM (inactive) | 49.3 µM (inactive) | > 75 µM (inactive) | > 75 µM (inactive) | > 75 µM (inactive) | 57.3 µM (inactive)
C#C[C@]1(O)CC[C@H]2[C@@H]3CCC4=C/C(=N\OCCN5CCCC5)CC[C@]4(C)[C@H]3CC[C@@]21C | 7.11 µM (inactive) | 13.2 | 29.1 µM (inactive) | 6.25 µM (inactive) | 5.36 µM (inactive) | 9.82 µM (inactive) | 12 µM (inactive) | 17.7 µM (inactive) | 3.57 µM (inactive) | 20.6 µM (inactive) | 13.5 µM (inactive) | 3.72 µM (inactive) | 3.67 µM (inactive) | 10.8 µM (inactive) | 16.1 µM (inactive) | 17.1 µM (inactive) | 17.3 µM (inactive) | 8.13 µM (inactive) | 15.7 µM (inactive)
CC(C)C(OC(=O)c1ccc(NCc2cc(O)ccc2O)cc1)C(C)C | 1.14 µM (inactive) | 0.317 | 0.424 µM (active) | 1.02 µM (active) | 2.6 µM (inactive) | 2.28 µM (inactive) | 1.89 µM (inactive) | 3.5 µM (inactive) | 0.16 µM (active) | 1.47 µM (inactive) | 0.479 µM (active) | 3.74 µM (inactive) | 2.2 µM (inactive) | 0.746 µM (active) | 0.871 µM (active) | 1.66 µM (inactive) | 1.14 µM (inactive) | 1.39 µM (inactive) | 1.17 µM (inactive)
CN(C)c1cccc(F)c1C(=O)NC(=O)Nc1ccc(Cl)cc1 | 2.98 µM (inactive) | 0.579 | 27.4 µM (inactive) | 2.21 µM (inactive) | 2.92 µM (inactive) | 1.93 µM (inactive) | 6.34 µM (inactive) | 1.91 µM (inactive) | 2.27 µM (inactive) | > 43 µM (inactive) | 3.67 µM (inactive) | 1.55 µM (inactive) | 3.33 µM (inactive) | 2.4 µM (inactive) | 4.86 µM (inactive) | > 100 µM (inactive) | 3.69 µM (inactive) | 3.42 µM (inactive) | 5.87 µM (inactive)
OCc1ccn2c1[C@@H](O)CC2 | > 100 µM (inactive) | > 100 | > 100 µM (inactive) | > 100 µM (inactive) | > 100 µM (inactive) | > 100 µM (inactive) | > 100 µM (inactive) | > 100 µM (inactive) | 1.55 µM (inactive) | > 100 µM (inactive) | > 100 µM (inactive) | > 100 µM (inactive) | > 100 µM (inactive) | > 100 µM (inactive) | > 100 µM (inactive) | > 100 µM (inactive) | > 100 µM (inactive) | > 100 µM (inactive) | –
COc1ccc(NC(=O)CC(=O)NN)cc1 | > 100 µM (inactive) | > 100 | 64 µM (inactive) | > 100 µM (inactive) | > 100 µM (inactive) | – | > 100 µM (inactive) | > 100 µM (inactive) | > 100 µM (inactive) | > 100 µM (inactive) | > 100 µM (inactive) | > 100 µM (inactive) | > 100 µM (inactive) | > 100 µM (inactive) | > 100 µM (inactive) | > 100 µM (inactive) | > 100 µM (inactive) | > 100 µM (inactive) | > 100 µM (inactive)
COc1ccc([C@H]2C=C(c3cc(F)c(Cl)cc3Cl)N=c3s/c(=C\c4ccc(-c5ccc(Cl)cc5Cl)o4)c(=O)n32)cc1 | 42.4 µM (inactive) | 33.8 | 31.6 µM (inactive) | 34.8 µM (inactive) | 60.1 µM (inactive) | 55.3 µM (inactive) | 38.9 µM (inactive) | 48.4 µM (inactive) | 52.2 µM (inactive) | 37.3 µM (inactive) | 39.6 µM (inactive) | 43.2 µM (inactive) | 36.6 µM (inactive) | 38.4 µM (inactive) | 19.6 µM (inactive) | 12.1 µM (inactive) | 34.8 µM (inactive) | 30 µM (inactive) | 32.9 µM (inactive)
O=C([O-])C[n+]1ccccc1.c1ccncc1 | > 100 µM (inactive) | > 100 | > 100 µM (inactive) | > 100 µM (inactive) | > 100 µM (inactive) | > 100 µM (inactive) | > 100 µM (inactive) | > 100 µM (inactive) | > 100 µM (inactive) | > 100 µM (inactive) | > 100 µM (inactive) | > 100 µM (inactive) | > 100 µM (inactive) | > 100 µM (inactive) | > 100 µM (inactive) | > 100 µM (inactive) | > 100 µM (inactive) | > 100 µM (inactive) | > 100 µM (inactive)
CN(C)CC1CCCc2ccccc2C1=O (centres undefined) | 1.47 µM (inactive) | 1.79 | 16 µM (inactive) | 3.93 µM (inactive) | 1.98 µM (inactive) | 1.85 µM (inactive) | 6.41 µM (inactive) | 19.6 µM (inactive) | 0.16 µM (active) | 0.839 µM (active) | 6.55 µM (inactive) | 17.3 µM (inactive) | 4.4 µM (inactive) | 41.8 µM (inactive) | 7.73 µM (inactive) | 3.83 µM (inactive) | 1.6 µM (inactive) | 6.1 µM (inactive) | 1.9 µM (inactive)
CC1(C)C=C(S(=O)(=O)c2ccccc2)Oc2ccccc2O1 | 44.6 µM (inactive) | 33.3 | 24.5 µM (inactive) | 64.9 µM (inactive) | 43.6 µM (inactive) | 46 µM (inactive) | 41.3 µM (inactive) | 35.2 µM (inactive) | 40.9 µM (inactive) | 37.4 µM (inactive) | 34.8 µM (inactive) | 33 µM (inactive) | 15.4 µM (inactive) | 16.7 µM (inactive) | 19.8 µM (inactive) | 6.7 µM (inactive) | 45.4 µM (inactive) | 38 µM (inactive) | 20.7 µM (inactive)
O=C(O)CCC1NC(/C(=C/c2ccccc2O)NC(=O)c2ccccc2)OC1=O (centres undefined) | 46.7 µM (inactive) | > 100 | > 100 µM (inactive) | 43.8 µM (inactive) | 4.57 µM (inactive) | > 100 µM (inactive) | > 100 µM (inactive) | > 100 µM (inactive) | 64.1 µM (inactive) | > 100 µM (inactive) | 34.2 µM (inactive) | 35.4 µM (inactive) | > 100 µM (inactive) | 23.2 µM (inactive) | 16 µM (inactive) | 56.1 µM (inactive) | 37.2 µM (inactive) | 27.5 µM (inactive) | 18 µM (inactive)
O=C(Nc1ccccc1)c1cc(S(=O)(=O)N2CCNNC2=O)c(S)cc1Cl | 47.6 µM (inactive) | 59.2 | 47.3 µM (inactive) | > 100 µM (inactive) | > 100 µM (inactive) | > 100 µM (inactive) | – | > 100 µM (inactive) | 24.7 µM (inactive) | > 100 µM (inactive) | 21.3 µM (inactive) | > 100 µM (inactive) | > 100 µM (inactive) | > 100 µM (inactive) | 44.5 µM (inactive) | > 100 µM (inactive) | > 100 µM (inactive) | > 100 µM (inactive) | > 100 µM (inactive)
Nc1c(S(=O)(=O)O)cc(Nc2cccc(S(=O)(=O)/C=C/S(=O)(=O)O)c2)c2c1C(=O)c1ccccc1C2=O | > 100 µM (inactive) | > 100 | > 100 µM (inactive) | 73.3 µM (inactive) | > 100 µM (inactive) | > 100 µM (inactive) | > 100 µM (inactive) | > 100 µM (inactive) | > 100 µM (inactive) | > 100 µM (inactive) | 14.2 µM (inactive) | > 100 µM (inactive) | > 100 µM (inactive) | 34.7 µM (inactive) | > 100 µM (inactive) | > 100 µM (inactive) | > 100 µM (inactive) | > 100 µM (inactive) | –
CCN(CC)CCSc1nc2c(c(=N)n1-c1ccccc1)c(=S)n(-c1ccccc1)c(=S)n2-c1ccccc1 | 0.441 µM (active) | 1.77 | 1.41 µM (inactive) | 2.58 µM (inactive) | 5.69 µM (inactive) | 2.16 µM (inactive) | 3.69 µM (inactive) | 1.91 µM (inactive) | 0.843 µM (active) | 3.47 µM (inactive) | 1.36 µM (inactive) | 12.8 µM (inactive) | 3.24 µM (inactive) | 2.19 µM (inactive) | 2.61 µM (inactive) | 1.73 µM (inactive) | 2.37 µM (inactive) | 1.72 µM (inactive) | –
O=C(O)C1(Nc2ccc(Cl)cc2)CCCC1 | > 100 µM (inactive) | 11.5 | > 100 µM (inactive) | > 100 µM (inactive) | > 100 µM (inactive) | > 100 µM (inactive) | > 100 µM (inactive) | > 100 µM (inactive) | > 100 µM (inactive) | > 100 µM (inactive) | > 100 µM (inactive) | 97.9 µM (inactive) | > 100 µM (inactive) | > 100 µM (inactive) | > 100 µM (inactive) | > 100 µM (inactive) | > 100 µM (inactive) | – | > 100 µM (inactive)
